≈ marks a conversion by molar mass, not a printed value.
Columns and labels:
[1] = water solubility of the active ingredient; format: physicochemical
Description: Brivaracetam is a very water soluble active ingredient (ca. 700 mg/ml), and it is not obvious to slow down the release of the drug.

BCS classification = format: physicochemical
Description: Considering Brivaracetam is classified as BCS I, the resulting in vitro dissolution (USP <711> apparatus no 2) in a buffered aqueous media has to show a drug release of no more than 40% after 1 hour of dissolution, of 35%-80% after 4 hours of dissolution and of no less than 80% after 16 hours of dissolution. Preferably, a profile of no more than 35% after 1 hour of dissolution, of 40%-75% after 4 hours of dissolution and of no less than 80% after 16 hours of dissolution. More preferably a profile of no more than 30% after 1 hour of dissolution, of 45%-70% after 4 hours of dissolution and of no less than 80% after 16 hours of dissolution.

CCC[C@@H]1CC(=O)N([C@@H](CC)C(N)=O)C1 [Brivaracetam, (2S)-2-[(4R)-2-oxo-4-propyl-pyrrolidin-1-yl]butanamide]
solubility [1]: ~700 mg/mL (≈ 3300 mM)
BCS class (BCS classification): BCS I

Source: US8435564B2, “Pharmaceutical compositions comprising brivaracetam” (UCB Pharma, S.A., priority 2008, dated 2013)
